Legend:
rats = test: positive emotional learning (PEL) test, 50-kHz ultrasonic vocalizations; assay type: in vivo; conditions: rat, PO, one hour after administration
Protocol: Experiments were conducted as described in Burgdorf et al., “The effect of selective breeding for differential rates of 50-kHz ultrasonic vocalizations on emotional behavior in rats,” Devel. Psychobiol., 51:34-46 (2009). Rat 50-kHz ultrasonic vocalization (hedonic USVs) is a validated model for the study of positive affective state and is best elicited by rough-and-tumble play.
The PEL assay measures the acquisition of positive (hedonic) 50-kHz ultrasonic vocalizations (USVs) to a social stimulus, heterospecific rough and tumble play stimulation. Heterospecific rough-and-tumble play stimulation was administered by the experimenter's right hand. One hour after administration of test compound or vehicle negative control (0.5% sodium carboxymethyl cellulose in 0.9% sterile saline vehicle), animals received 3 min of heterospecific rough-and-tumble play that consisted of alternating 15 sec blocks of heterospecific play and 15 sec of no-stimulation. High frequency ultrasonic vocalizations (USVs) were recorded and analyzed by sonogram with Avasoft SASlab Pro (Germany) as previously described by Burgdorf et al., “Positive emotional learning is regulated in the medial prefrontal cortex by GluN2B-containing NMDA receptors,” Neuroscience, 192:515-523 (2011). Frequency modulated 50-kHz USVs that occurred during each of the no-stimulation periods were quantified to measure PEL. Animals were not habituated to play stimulation before testing. Positive emotional learning was measured during the conditioned stimulus (CS) trials preceding the tickle unconditioned stimulus (UCS) trials. Animals received 15 second trials consisting of 6 CS and 6 UCS trials each (3 min total).
The table below summarizes the findings. As each experiment includes its own vehicle group, an example (typical) vehicle score is shown. Max effect (mean number of 50 kHz USVs per 15 seconds) is reported as ^: <6.0; *: 6.0-7.6; **: 7.7-10; ***:10.1-20

NMDAR2A = molecular target: T1, NMDAR2A (Homo sapiens, UniProt Q12879); test: [3H]MK-801 binding in NMDAR2A expressing HEK cell membranes; assay type: biochemical; conditions: 50 μM glutamate; for Emax: read-out: A: % maximal [3H]MK-801 binding relative to 1 mM glycine; for EC50: read-out: B: log EC50 (converted)
T1 construct: expressed in transfected cells; host or cells: HEK cells (membrane extract)
T1 sequence (Q12879 23-1464, species assumed, other chains not shown): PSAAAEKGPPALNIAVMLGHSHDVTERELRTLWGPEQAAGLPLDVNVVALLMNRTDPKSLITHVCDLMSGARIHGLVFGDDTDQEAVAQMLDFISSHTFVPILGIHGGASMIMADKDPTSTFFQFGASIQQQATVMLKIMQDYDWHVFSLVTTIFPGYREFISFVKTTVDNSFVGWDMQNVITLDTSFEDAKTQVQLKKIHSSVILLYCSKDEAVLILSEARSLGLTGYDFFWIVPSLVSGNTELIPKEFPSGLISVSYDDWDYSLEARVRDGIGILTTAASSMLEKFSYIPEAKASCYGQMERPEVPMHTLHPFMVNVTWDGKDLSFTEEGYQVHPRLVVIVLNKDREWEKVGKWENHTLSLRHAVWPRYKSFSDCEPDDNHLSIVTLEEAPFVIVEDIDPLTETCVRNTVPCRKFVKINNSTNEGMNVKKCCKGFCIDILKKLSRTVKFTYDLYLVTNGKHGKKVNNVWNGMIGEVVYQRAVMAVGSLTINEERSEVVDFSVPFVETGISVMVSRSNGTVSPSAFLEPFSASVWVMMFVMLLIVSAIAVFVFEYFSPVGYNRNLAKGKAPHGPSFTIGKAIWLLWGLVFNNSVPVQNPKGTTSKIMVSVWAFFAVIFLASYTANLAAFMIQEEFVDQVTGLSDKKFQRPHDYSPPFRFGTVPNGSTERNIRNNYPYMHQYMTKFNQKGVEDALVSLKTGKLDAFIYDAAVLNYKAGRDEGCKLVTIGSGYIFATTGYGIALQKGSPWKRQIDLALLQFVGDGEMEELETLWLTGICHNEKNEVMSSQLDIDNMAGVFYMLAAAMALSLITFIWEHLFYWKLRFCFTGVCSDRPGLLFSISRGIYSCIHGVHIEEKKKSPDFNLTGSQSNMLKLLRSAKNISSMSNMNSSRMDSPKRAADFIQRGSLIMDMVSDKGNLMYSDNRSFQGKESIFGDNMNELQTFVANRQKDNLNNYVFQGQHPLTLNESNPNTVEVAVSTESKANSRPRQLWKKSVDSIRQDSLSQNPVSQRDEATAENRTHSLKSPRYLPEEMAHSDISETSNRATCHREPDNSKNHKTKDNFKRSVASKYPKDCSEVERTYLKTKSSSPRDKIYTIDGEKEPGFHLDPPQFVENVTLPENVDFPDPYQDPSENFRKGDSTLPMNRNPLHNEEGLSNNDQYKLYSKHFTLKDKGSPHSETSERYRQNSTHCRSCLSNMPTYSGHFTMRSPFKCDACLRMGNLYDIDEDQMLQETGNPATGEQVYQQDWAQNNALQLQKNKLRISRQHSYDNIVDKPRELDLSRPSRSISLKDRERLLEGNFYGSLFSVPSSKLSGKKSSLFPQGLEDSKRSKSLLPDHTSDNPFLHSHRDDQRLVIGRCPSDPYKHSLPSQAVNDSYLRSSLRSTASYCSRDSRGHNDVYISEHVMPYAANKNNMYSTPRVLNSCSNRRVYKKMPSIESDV
Protocol: (§1) Assays were conducted as described by Moskal et al., “GLYX-13: a monoclonal antibody-derived peptide that acts as an N-methyl-D-aspartate receptor modulator,” Neuropharmacology, 49, 1077-87, 2005. These studies were designed to determine if the test compounds act to facilitate NMDAR activation in NMDAR2A, NMDAR2B, NMDAR2C or NMDAR2D expressing HEK cell membranes as measured by increases in [^3H]MK-801 binding.
(§2) In the assay, 300 μg of NMDAR expressing HEK cell membrane extract protein was preincubated for 15 minutes at 25° C. in the presence of saturating concentrations of glutamate (50 μM) and varying concentrations of test compound (1×10^−15M−1×10^−7M), or 1 mM glycine. Following the addition of 0.3 μCi of [^3H]MK-801 (22.5 Ci/mmol), reactions were again incubated for 15 minutes at 25° C. (nonequilibrium conditions). Bound and free [^3H]MK-801 were separated via rapid filtration using a Brandel apparatus.
(§3) In analyzing the data, the DPM (disintegrations per minute) of [^3H]MK-801 remaining on the filter were measured for each concentration of test compound or for 1 mM glycine. The DPM values for each concentration of a ligand (N=2) were averaged. The baseline value was determined from the best fit curve of the DPM values modeled using the GraphPad program and the log(agonist) vs. response (three parameters) algorithm was then subtracted from all points in the dataset. The % maximal [^3H]MK-801 binding was then calculated relative to that of 1 mM glycine: all baseline subtracted DPM values were divided by the average value for 1 mM glycine. The EC50 and % maximal activity were then obtained from the best fit curve of the % maximal [^3H]MK-801 binding data modelled using the GraphPad program and the log(agonist) vs. response (three parameters) algorithm.
(§4) The tables below summarize the results for the wild type […] NMDAR2A, NMDAR2B, NMDAR2C, and NMDAR2D, and whether the compound is not an agonist (−), is an agonist (+), or is a strong agonist (++), where column A is based on the % maximal [^3H]MK-801 binding relative to 1 mM glycine (−=0; <100%=+; and >100%=++); and column B is based on log EC50 values (0=−; ≥1×10^−9 M (e.g., −8)=+; and <1×10^−9 M (e.g., −10)=++).

NMDAR2B = molecular target: T2, NMDAR2B (Homo sapiens, UniProt Q13224); test: [3H]MK-801 binding in NMDAR2B expressing HEK cell membranes; assay type: biochemical; set-up: key to B: log EC50: 0=−; ≥1×10^−9 M (e.g., −8)=+; <1×10^−9 M (e.g., −10)=++; conditions: 50 μM glutamate; for Emax: read-out: A: % maximal [3H]MK-801 binding relative to 1 mM glycine; for EC50: read-out: B: log EC50 (converted)
T2 construct: expressed in transfected cells; host or cells: HEK cells (membrane extract)
T2 sequence (Q13224 27-1484, species assumed, other chains not shown): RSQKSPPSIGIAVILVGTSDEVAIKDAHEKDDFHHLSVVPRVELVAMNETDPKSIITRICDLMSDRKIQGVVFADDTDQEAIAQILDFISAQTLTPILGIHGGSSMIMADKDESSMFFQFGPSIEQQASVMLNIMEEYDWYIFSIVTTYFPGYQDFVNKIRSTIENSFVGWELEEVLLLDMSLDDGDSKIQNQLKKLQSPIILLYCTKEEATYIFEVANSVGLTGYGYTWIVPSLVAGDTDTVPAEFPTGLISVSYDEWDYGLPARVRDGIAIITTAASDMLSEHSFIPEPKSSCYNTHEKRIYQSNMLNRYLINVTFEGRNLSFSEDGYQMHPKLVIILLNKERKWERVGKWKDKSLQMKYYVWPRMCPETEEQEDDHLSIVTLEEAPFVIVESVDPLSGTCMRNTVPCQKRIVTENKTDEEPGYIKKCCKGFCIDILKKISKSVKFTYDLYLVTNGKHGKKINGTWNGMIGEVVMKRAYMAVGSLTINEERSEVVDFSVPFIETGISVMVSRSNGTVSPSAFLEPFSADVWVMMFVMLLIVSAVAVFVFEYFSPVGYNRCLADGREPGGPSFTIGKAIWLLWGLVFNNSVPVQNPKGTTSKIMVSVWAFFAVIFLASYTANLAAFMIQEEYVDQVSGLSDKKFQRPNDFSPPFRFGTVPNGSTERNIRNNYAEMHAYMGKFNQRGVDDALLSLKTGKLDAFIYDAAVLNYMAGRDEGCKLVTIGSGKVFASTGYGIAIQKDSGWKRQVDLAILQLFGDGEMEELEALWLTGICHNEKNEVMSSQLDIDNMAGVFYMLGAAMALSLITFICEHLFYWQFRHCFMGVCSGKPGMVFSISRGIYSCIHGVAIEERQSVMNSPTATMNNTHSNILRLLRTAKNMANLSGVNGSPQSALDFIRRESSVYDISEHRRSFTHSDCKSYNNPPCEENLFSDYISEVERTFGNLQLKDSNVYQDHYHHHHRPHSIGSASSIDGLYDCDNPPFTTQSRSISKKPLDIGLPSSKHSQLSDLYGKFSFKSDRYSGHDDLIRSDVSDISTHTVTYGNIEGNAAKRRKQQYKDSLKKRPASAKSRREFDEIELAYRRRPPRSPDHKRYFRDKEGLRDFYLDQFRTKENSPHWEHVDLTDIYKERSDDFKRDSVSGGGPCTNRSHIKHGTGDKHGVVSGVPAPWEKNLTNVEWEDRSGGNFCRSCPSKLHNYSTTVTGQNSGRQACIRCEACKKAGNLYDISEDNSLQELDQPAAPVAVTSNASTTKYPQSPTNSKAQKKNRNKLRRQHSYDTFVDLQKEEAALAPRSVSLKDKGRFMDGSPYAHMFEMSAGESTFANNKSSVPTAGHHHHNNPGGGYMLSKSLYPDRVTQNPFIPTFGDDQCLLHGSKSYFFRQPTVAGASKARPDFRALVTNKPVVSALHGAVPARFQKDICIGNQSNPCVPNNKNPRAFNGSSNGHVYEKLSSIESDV
Protocol: as §1, §2, §3, §4

[1] = oral pharmacokinetics (plasma, brain, CSF); assay type: in vivo; conditions: Sprague Dawley rats, per os 10 mg/kg; for Tmax: normal saline (first four compounds: 5% NMP, 5% Solutol HS, 90% normal saline), read-out: Tmax; for Cmax: read-out: Cmax
Protocol: Plasma, brain, and CSF samples were analyzed at various time points over a 24 hour period.

NMDAR2D = molecular target: T3, NMDAR2D (Homo sapiens, UniProt O15399); test: [3H]MK-801 binding in NMDAR2D expressing HEK cell membranes; assay type: biochemical; conditions: second part of table (r25-r35); c3, taken as NMDAR2D
T3 construct: expressed in transfected cells; host or cells: HEK cells (membrane extract)
T3 sequence (O15399 28-1336, species assumed, other chains not shown): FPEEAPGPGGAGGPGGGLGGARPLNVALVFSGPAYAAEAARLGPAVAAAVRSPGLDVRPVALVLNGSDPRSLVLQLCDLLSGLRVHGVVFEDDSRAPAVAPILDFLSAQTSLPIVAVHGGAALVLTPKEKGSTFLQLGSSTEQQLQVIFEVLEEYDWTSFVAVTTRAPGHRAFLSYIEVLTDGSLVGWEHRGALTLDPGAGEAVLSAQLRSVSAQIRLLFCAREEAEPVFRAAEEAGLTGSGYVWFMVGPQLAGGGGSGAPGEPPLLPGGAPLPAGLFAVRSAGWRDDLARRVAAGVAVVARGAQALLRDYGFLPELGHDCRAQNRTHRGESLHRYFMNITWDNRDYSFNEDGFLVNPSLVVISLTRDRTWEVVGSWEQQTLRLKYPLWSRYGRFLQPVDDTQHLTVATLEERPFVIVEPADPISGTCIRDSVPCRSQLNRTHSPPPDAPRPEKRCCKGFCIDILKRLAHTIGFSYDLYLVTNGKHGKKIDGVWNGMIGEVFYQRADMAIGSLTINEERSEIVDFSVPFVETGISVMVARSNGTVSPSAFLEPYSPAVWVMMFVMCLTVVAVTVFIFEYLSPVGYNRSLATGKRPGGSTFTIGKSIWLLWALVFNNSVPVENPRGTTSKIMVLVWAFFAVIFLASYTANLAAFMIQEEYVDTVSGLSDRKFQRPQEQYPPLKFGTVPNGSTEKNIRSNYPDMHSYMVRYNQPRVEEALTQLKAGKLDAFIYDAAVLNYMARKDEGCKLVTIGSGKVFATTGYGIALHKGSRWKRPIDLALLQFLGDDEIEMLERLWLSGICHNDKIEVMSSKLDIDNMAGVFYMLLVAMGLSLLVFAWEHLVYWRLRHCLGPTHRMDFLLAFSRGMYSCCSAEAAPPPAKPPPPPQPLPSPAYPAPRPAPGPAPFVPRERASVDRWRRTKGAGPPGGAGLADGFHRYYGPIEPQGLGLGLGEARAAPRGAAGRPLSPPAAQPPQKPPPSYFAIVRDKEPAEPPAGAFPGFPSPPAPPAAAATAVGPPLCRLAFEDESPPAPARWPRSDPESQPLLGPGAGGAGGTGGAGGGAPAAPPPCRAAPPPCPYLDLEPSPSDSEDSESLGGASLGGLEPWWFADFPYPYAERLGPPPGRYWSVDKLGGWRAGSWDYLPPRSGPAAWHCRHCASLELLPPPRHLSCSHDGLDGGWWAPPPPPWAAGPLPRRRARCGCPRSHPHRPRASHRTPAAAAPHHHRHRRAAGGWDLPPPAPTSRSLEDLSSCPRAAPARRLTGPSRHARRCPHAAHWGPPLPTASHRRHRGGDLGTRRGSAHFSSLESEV
Protocol: as §1, §2, §3, §4

IV pharmacokinetics = assay type: in vivo; conditions: Sprague Dawley rats
Protocol: Sprague Dawley rats were dosed intravenously using a normal saline formulation containing 2 mg/kg of the compounds identified in the below table (except for the first four compounds that were delivered in 5% NMP, 5% Solutol® HS and 90% normal saline formulation). The table below summarizes the results of the IV pharmacokinetics.

[2] = Sprague Dawley, rat, plasma, po, 10 mg/kg
[3] = Sprague Dawley, rat, plasma, po, 10 mg/kg, plasma
[4] = Sprague Dawley, rat, in vivo, iv, 2 mg/kg

Structure (SMILES) | Max Effect (mean number of 50 kHz USVs per 15 seconds) (rats; dose 0.1 mg/kg) | Emax (NMDAR2A) [%] | EC50 (NMDAR2A) [nM] | Emax (NMDAR2B) [%] | EC50 (NMDAR2B) [nM] | CSF Cmax [1] [ng/mL] | Tmax [1, 2] [h] | Cmax [1, 3] [ng/mL] | Max Effect (mean number of 50 kHz USVs per 15 seconds) (rats; dose .001-1 mg/kg) | B: log EC50 (NMDAR2B) | A: % maximal [3H]MK-801 binding relative to 1 mM glycine (NMDAR2D) | T1/2 (IV pharmacokinetics; intravenous 2 mg/kg) [h] | AUC(0-t) (IV pharmacokinetics; [4]) [ng·h/mL] | clearance (IV pharmacokinetics; [4]) [mL/min/kg] | C0 (IV pharmacokinetics; Sprague Dawley, rat, in vivo, iv, 2 mg/kg, normal saline (first four compounds: 5% NMP, 5% Solutol HS, 90% normal saline), read-out: C0) [ng/mL] | Vd (IV pharmacokinetics; Sprague Dawley, rat, in vivo, iv, 2 mg/kg, read-out: Vss) [L/kg] | Brain Cmax ([1]; brain) [ng/mL] | AUC(0-t) [1, 2] [ng·h/mL] | bioavailability [1, 2] [%]
CC(C)(C)OC(=O)N1CCCC12CCNC2=O (single isomer, unassigned) [RT-1, tert-butyl 6-oxo-1,7-diazaspiro[4.4]nonane-1-carboxylate] | ** (**: 7.7-10) | < 100 | < 1 | < 100 | < 1 |  |  |  |  |  |  |  |  |  |  |  |  |  | 
O=C1NCCC12CCCN2 (single isomer, unassigned) [RW-1, 1,7-diazaspiro[4.4]nonan-6-one] | ** (**: 7.7-10) | < 100 | ≥ 1 | < 100 | < 1 | 853 | 1 | 4070 |  |  |  |  |  |  |  |  |  |  | 
O=C1NCCC12CCCNC2 (stereo not drawn) [RB-1, 2,7-diazaspiro[4.5]decan-1-one] |  | < 100 | < 1 | > 100 |  | 27.4 | 1.17 | 825 | *** (***:10.1-20) | − | + (<100%=+) | 3.35 | 1260 | 25.8 | 2070 | 2.79 | 40.2 | 3290 | 52

— patent US11530223B2, “Spiro-lactam NMDA receptor modulators and uses thereof” (Aptinyx Inc., priority 2016, dated 2022)
